Measured values: US5043165A, “Novel liposome composition for sustained release of steroidal drugs” (priority 1988, dated 1991)
Entries after “also recorded” stand apart in the source; their conditions may differ.

Assays:
[1] = Plasma pharmacokinetics of 14C-BDP after i.v. injection or intratracheal instillation; format: in vivo, male Sprague-Dawley rats; conditions: rat
Protocol: In order to determine the rate of absorption of the steroidal drug into the plasma after intratracheal administration, various formulations containing either the free steroid or steroid encapsulated in liposomes were prepared and tested.
The free drug control was administered intravenously to provide relative basis for measurement of bioavailability. […] The resulting plasma profiles, given in FIG. 1, illustrate the physiological removal of steroid from the blood circulation. […] As will be seen from FIG. 2, the rate of absorption of free steroid from lungs to the plasma is rapid and the physiological removal from the plasma follows the same course as that of the free drug. […] Thus, the rate of absorption from lungs to plasma of free steroid and steroid encapsulated in conventional liposomes is not much different and follows similar curve.
Plasma and lung levels of radiolabel were measured as previously described. The decrease in plasma concentration versus time following free drug administration was biphasic (FIG. 4).

[2] = TLC assay of lung samples for metabolism of BDP before absorption; format: in vivo, rats; conditions: thin layer chromatographic assay
[3] = Partition coefficient between octanol and phosphate buffer saline; format: physicochemical; conditions: pH 7.4
[4] = rat, in vivo
Excerpt: The resulting slopes and intercepts were used as estimates of the absorption rate constant (Ka) and the amount of drug in the lungs at zero time, respectively. […] These later values relate to the elimination of radiolabel already released from the liposomes and distributed to the lungs. The amount of drug in the lungs at time zero can be used to determine the amount of free drug in the formulation, since free drug is very rapidly absorbed from the lungs (Dose=free drug+amount in lungs at t=0). This amount also includes any liposome associated drug that was rapidly released ("burst" effect).
All studies were performed in male Sprague-Dawley rats weighing 250 to 450 g. After fasting for 16 hours, animals were anesthetized by i.m. injection of ketamine (25 mg/kg), xylazine (5 mg/kg) and acepromazine (0.5 mg/ml). During the procedure the animal's body temperature was maintained with a 37° C. heating pad. Additional anesthetic was administered as required, using half the original dose. A midline incision was made in the neck and the right jugular vein and left carotid artery were cannulated with short lengths of polyethylene tubing to which a 23 ga Luer stub adapter (Clay Adams #7565) and plastic 3-way stopcock (Argyle #173518) were attached. Blood samples (0.5-4 ml) were removed from the carotid arterial cannula after first flushing with fresh blood to clear the line. […]
Blood samples were removed at four time points during the study from each rat, centrifuged, and the serum was removed and stored frozen (-20°C.) until assayed. […] The homogenate was briefly centrifuged and measured aliquots of the supernate removed to Teflon-stoppered glass tubes which were stored at -20° C. or below until assayed.
The actual dose administered in each study was determined by measurement of duplicate dose control samples of the formulation which were delivered by the same apparatus used in dosing the animals.
In some studies, the plasma concentration of radiolabel was also measured over the course of the experiment.

[5] = in vivo; cited from earlier work
[6] = mouse, in vivo, iv
Protocol: The nonconventional steroidal liposome composition prepared according to Example III was administered intravenously and the ability of mouse organs to bind and/or take up the radiolabel was studied.
All experiments were carried out using groups of male ICR mice weighing approximately 25 grams (the weight of any individual mouse was not more than 10% different from the group mean weight). Doses of nonconventional liposomes containing beclomethosome dipropionate spiked according to Example III were administered to a mouse via a tail vein. At the end of the experimental period mice were lightly anesthesized with diethyl ether and a 1 ml blood sample was rapidly removed from the jugular vein with a heparinized syringe. […]
All organ and carcass samples were stored at -20° prior to analysis. […] Dried samples were analyzed for total ^14 C radioactivity by scintillation counting following combustion in a Packard Sample Oxidizer, Combustions were carried out in series, with the inclusion of appropriate blanks. A duplicate sample from every third animal was analyzed to monitor the combustion reproducibility. […] Total radioactivity in liver, spleen, carcass and 1.0 ml blood was calculated and converted to percent of encapsulated dose. […] Total radioactivity in vivo was estimated by summing values for liver, spleen, total blood volume and carcass.

[7] = Intrathecal administration: drug in cranial and spinal compartments and cerebrospinal fluid; conditions: 50 ul, 20 mg/ml

CCC(=O)OCC(=O)[C@@]1(OC(=O)CC)[C@@H](C)C[C@H]2[C@@H]3CCC4=CC(=O)C=C[C@]4(C)[C@@]3(Cl)[C@@H](O)C[C@@]21C [BDP, beclomethasone dipropionate]
absorption from lungs (in words) ([1]; intratracheal instillation, listed as free BDP): rapid; also recorded: quickly removed from the lungs into plasma | plasma kinetics (in words) ([1]; compared with free drug): biphasic | metabolism of BDP prior to leaving the lungs [2]: no detectable metabolism of BDP prior to leaving the lungs | BDP associated with the octanol (octanol/phosphate buffer saline partition) [3]: 95% | apparent half-life in lungs (elimination of radiolabel already released, not absorption) [4]: 3.0 h | drug absorbed before the first time point [4]: over 98% | radiolabel removed/absorbed from the lungs ([4]; iv): 99.7% | secondary adverse reactions [5]: localized infection of the mouth and pharynx with Candida albicans or Aspergillus niger, hoarseness and dry mouth

C[C@H]1C[C@H]2[C@@H]3CCC4=CC(=O)C=C[C@]4(C)[C@@]3(Cl)[C@@H](O)C[C@]2(C)[C@@]1(O)C(=O)CO [Free beclomethasone, beclomethasone]
persistence in plasma [6]: disappears rapidly from the plasma

C[C@]12CCC(=O)C=C1CC[C@@H]1[C@@H]2C(=O)C[C@@]2(C)[C@H]1CC[C@]2(O)C(=O)CO [free cortisone, cortisone]
time to almost complete disappearance from cranial or spinal compartments [7]: ≤ 2.8 h | time to elimination from cerebrospinal fluid [7]: ≤ 2.8 h
